This note sets out measurements from ChEMBL document CHEMBL1143962, “Protective effect of irisolidone, a metabolite of kakkalide, against hydrogen peroxide induced cell damage via antioxidant effect” (2008).

A short description of assay [1]: DPPH radical scavenging activity at 1 ug/ml after 30 mins. Type of assay: functional. (The DPPH test is a chemical assay of radical scavenging.)
Assay [2] deals with Transcription factor Jun (Homo sapiens) (UniProt P05412). Briefly: Increase in transcriptional activity of AP1 transfected in V79-4 cells by luciferase assay. Type of assay: cell-based.
Sequence of Transcription factor Jun (Homo sapiens) (P05412 whole entry): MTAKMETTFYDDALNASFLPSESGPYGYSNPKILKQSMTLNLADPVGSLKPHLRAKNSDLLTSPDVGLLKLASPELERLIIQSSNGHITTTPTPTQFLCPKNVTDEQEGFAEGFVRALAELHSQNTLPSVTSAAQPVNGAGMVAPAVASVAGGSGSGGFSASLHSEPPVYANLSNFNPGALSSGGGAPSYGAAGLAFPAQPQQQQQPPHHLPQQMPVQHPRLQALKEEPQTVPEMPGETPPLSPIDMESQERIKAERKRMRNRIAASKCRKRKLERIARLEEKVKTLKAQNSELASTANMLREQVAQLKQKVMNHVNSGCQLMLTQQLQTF
The test system of assay [3] is V79-4. Briefly: Protective effect on hydrogen peroxide-induced cell damage in chinese hamster V79-4 cells assessed as decrease in apoptotic sub-G1 DNA content at 50 ug/ml by flow cytometry. Type of assay: functional, Cricetulus griseus. Also on record: scale not given: the % may be the effect or the level left. For orientation: Flow cytometry measures light scatter and fluorescence of single cells or particles in a stream.

In assay [4] the test system is V79-4. Briefly: Decrease in hydrogen peroxide-induced 8-OHdG in chinese hamster V79-4 cells at 50 ug/mL. In kind it is functional, Cricetulus griseus.
In assay [5] the test system is V79-4. Nature of the assay: Activation of ERK in chinese hamster V79-4 cells assessed as phosphorylated ERK within 6 hrs. Type of assay: cell-based. Particulars: Cricetulus griseus.
Assay [6] has as its system V79-4. Nature of the assay: Protective effect on hydrogen peroxide-induced cell damage in chinese hamster V79-4 cells assessed as decrease in DNA fragmentation level at 50 ug/ml by ELISA. Type of assay: functional, cell-based. Particulars: Cricetulus griseus. In general terms: In an ELISA, binding on a coated surface is turned into a signal by an enzyme label.
The subject of assay [7] is V79-4. Briefly: Protection against hydrogen peroxide-induced apoptosis in chinese hamster V79-4 cells assessed as cell survival by MTT assay. Type of assay: functional, Cricetulus griseus.
Assay [8] has as its system V79-4. Briefly: Inhibition of hydrogen peroxide-induced lipid peroxidation in chinese hamster V79-4 cells assessed as TBARS per mg of protein at 10 ug/mL. In kind it is functional, Cricetulus griseus.
The nature of assay [9]: DPPH radical scavenging activity at 10 ug/ml after 30 mins. Type of assay: functional.
Assay [10] concerns V79-4. Briefly: Inhibition of hydrogen peroxide-induced lipid peroxidation in chinese hamster V79-4 cells assessed as TBARS per mg of protein at 50 ug/mL. In kind it is functional, Cricetulus griseus.
Assay [11] relates to V79-4. Nature of the assay: Decrease in hydrogen peroxide-induced 8-OHdG in chinese hamster V79-4 cells at 10 ug/mL. In kind it is functional, Cricetulus griseus.
Assay [12] concerns V79-4. Nature of the assay: ROS scavenging activity in chinese hamster V79-4 cells at 10 ug/mL after 30 mins by DCF-DA method. Type of assay: functional, Cricetulus griseus.
In assay [13] the test system is V79-4. Nature of the assay: Inhibition of hydrogen peroxide-induced lipid peroxidation in chinese hamster V79-4 cells assessed as TBARS per mg of protein at 1 ug/mL. Type of assay: functional, Cricetulus griseus.
The subject of assay [14] is V79-4. Briefly: ROS scavenging activity in chinese hamster V79-4 cells at 1 ug/mL after 30 mins by DCF-DA method. Type of assay: functional, Cricetulus griseus.
The test system of assay [15] is V79-4. Briefly: Decrease in hydrogen peroxide-induced 8-OHdG in chinese hamster V79-4 cells at 1 ug/mL. In kind it is functional, Cricetulus griseus.
Assay [16] deals with V79-4. Nature of the assay: ROS scavenging activity in chinese hamster V79-4 cells at 50 ug/mL after 30 mins by DCF-DA method. In kind it is functional, Cricetulus griseus.
Assay [17] has as its system V79-4. Nature of the assay: Effect on hydrogen peroxide-induced DNA damage in chinese hamster V79-4 cells assessed as decrease in phospho H2A.X expression. To be noted: Cricetulus griseus. In kind it is functional, cell-based.
Assay [18] is described as follows: DPPH radical scavenging activity at 50 ug/ml after 30 mins. Type of assay: functional.
For assay [19], the system named is V79-4. Nature of the assay: Protective effect on hydrogen peroxide-induced damage in chinese hamster V79-4 cells in presence of U0126 by MTT assay. To be noted: Cricetulus griseus. In kind it is functional, cell-based.

Activity calls are given as the source filed them. No cut-off for these calls is given here.

For the compound `COc1ccc(-c2coc3cc(O)c(OC)c(O)c3c2=O)cc1` [IRISOLIDONE], the Activity in [1] turned out to be 10%; with V79-4 [3] it was 36%; in the assay with V79-4 [4] it was 6409 pg/mL; in the assay with V79-4 [8], 1 µmol; in assay [9] it was 19%; with V79-4 [10], 0.8 µmol. Moreover, the Activity was 7956 pg/mL in the assay with V79-4 [11]; 58% with V79-4 [12]; 1.2 µmol in the assay on V79-4 [13]; 41% with V79-4 [14]; 9280 pg/mL with V79-4 [15]; 66% in the assay on V79-4 [16]. This compound also registered an Activity in assay [18] of 44%. In addition, the result (in assay [2]; in the assay with V79-4 [5]; with V79-4 [6]; with V79-4 [17]) was Active. Also, the Survival with V79-4 [7] came to 48%. Moreover, the outcome with V79-4 [19] was inactive.

Take `COc1ccc(-c2coc3cc(O[C@@H]4O[C@H](COC5OC[C@@H](O)[C@H](O)[C@H]5O)[C@@H](O)[C@H](O)[C@H]4O)c(OC)c(O)c3c2=O)cc1` (stereo not given in full) [KAKKALIDE]: the Activity came out at 8% in assay [1]; 12% in assay [9]; 37% with V79-4 [12]; 29% in the assay on V79-4 [14]; 51% with V79-4 [16]; 28% in assay [18].
